Reference: US12612407B2, “Imidazo[2,1-f][1,2,4]triazin-4-amine derivatives as TLR7 agonist” (BEIGENE, LTD., priority 2020, dated 2026)

How the values were obtained:
Format in all cases: cell-based
human TLR7 [1] = target: T1, human TLR7 (Homo sapiens, UniProt Q9NYK1); experiment: HEK293-Blue hTLR7 Reporter Assay (QUANTI-BLUE, SEAP readout); details: HEK-Blue-hTLR7 cells, 24 hrs treatment, Table 1, B1-B232
T1 construct: host or cells: HEK293 (HEK-Blue hTLR7)
T1 sequence (Q9NYK1 27-1049): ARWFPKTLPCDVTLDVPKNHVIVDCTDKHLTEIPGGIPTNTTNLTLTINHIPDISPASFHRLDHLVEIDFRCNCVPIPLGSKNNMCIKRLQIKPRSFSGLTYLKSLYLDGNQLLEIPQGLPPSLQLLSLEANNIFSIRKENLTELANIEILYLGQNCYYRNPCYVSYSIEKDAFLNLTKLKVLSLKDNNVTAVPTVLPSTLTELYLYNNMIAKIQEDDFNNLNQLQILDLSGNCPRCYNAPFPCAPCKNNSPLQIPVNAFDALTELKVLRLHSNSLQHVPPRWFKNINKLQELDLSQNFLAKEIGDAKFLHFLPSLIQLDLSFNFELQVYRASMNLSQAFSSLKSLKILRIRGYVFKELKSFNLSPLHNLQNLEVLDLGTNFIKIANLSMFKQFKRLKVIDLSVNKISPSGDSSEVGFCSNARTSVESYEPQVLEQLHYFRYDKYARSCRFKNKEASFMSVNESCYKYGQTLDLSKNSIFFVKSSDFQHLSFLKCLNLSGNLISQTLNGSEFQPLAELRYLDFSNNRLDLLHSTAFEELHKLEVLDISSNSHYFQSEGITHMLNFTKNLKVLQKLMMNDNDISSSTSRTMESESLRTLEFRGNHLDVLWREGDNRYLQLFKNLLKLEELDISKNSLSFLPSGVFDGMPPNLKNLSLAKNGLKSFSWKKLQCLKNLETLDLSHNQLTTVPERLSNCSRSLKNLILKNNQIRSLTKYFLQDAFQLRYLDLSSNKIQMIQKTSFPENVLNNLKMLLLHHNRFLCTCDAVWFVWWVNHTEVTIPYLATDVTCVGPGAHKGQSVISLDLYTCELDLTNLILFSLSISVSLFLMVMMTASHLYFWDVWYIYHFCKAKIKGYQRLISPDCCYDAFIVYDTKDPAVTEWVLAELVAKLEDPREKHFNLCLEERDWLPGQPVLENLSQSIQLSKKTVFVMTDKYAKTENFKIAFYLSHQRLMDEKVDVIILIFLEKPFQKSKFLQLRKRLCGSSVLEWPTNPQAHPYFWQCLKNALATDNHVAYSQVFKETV
Summary of the method: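 Compound titrations were applied for 24 h at 37° C to reporter HEK293 cells (4×10^4 per well) in which human TLR7 activation drives secreted alkaline phosphatase. Supernatants reacted with Quanti-blue 10-30 min, absorbance read at 620-655 nm, and EC50 derived by sigmoidal curve fitting.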

human TLR 8 protein = target: T2, human TLR 8 protein (Homo sapiens, UniProt Q9NR97); experiment: TLR8 Stimulation determined using HEK-Blue Detection; details: HEK-Blue hTLR8 cells, 16 hr, percentages of maximum activation with Resiquimod or Motolimod, Table 3
T2 construct: expressed in transfected cells; host or cells: HEK293 (HEK-Blue hTLR8)
T2 sequence (Q9NR97 27-1041): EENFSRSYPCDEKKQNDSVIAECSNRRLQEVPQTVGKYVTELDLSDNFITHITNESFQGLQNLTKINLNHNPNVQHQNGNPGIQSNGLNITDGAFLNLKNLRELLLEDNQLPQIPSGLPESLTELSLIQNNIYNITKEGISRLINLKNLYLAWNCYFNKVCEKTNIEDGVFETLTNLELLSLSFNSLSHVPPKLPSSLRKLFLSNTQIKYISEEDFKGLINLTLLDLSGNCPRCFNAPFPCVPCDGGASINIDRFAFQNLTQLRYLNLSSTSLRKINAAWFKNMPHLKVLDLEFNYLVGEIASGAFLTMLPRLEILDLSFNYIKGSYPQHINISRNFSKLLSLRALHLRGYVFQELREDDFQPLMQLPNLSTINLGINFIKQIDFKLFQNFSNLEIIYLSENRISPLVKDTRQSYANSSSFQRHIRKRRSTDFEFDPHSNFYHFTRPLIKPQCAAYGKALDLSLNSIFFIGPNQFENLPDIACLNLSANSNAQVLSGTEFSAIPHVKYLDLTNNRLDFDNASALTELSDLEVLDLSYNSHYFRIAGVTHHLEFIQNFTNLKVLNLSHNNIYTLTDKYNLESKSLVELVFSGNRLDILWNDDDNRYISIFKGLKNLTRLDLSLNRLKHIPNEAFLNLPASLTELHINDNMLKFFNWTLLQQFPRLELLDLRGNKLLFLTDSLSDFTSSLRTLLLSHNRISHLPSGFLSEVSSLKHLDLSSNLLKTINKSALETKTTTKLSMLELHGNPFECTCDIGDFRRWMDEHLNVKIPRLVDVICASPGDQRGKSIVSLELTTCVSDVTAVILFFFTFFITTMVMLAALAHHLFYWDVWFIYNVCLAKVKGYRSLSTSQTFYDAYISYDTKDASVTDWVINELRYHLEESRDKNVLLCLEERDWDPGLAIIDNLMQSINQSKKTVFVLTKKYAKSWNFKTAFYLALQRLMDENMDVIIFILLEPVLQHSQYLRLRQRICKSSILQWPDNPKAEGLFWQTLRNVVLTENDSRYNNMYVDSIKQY
Excerpt: TLR8 Stimulation determined using HEK-Blue Detection
(§1) This assay was designed for studying the stimulation of human TLR 8 protein in HEK-Blue hTLR8 tool cell line by monitoring the activation of NF-κB. HEK-Blue hTLR8 cells were obtained by co-transfection of the hTLR8 gene and an optimized secreted embryonic alkaline phosphatase (SEAP) reporter gene into HEK293 cells. The SEAP reporter gene was placed under the control of the IFN-β minimal promoter fused to five NF-κB and AP-1-binding sites. Stimulation with a TLR 8 ligand activates NF-κB and AP-1 which induce the expression of SEAP. Levels of SEAP can be easily determined with HEK-Blue Detection, a cell culture medium that allows for real-time detection of SEAP. HEK-Blue Detection contains all the nutrients necessary for cell growth and a specific SEAP color substrate. The hydrolysis of the substrate by SEAP produces a purple/blue color that can be measured with a spectrophotometer.
(§2) When growing to 50-80% confluency, HEK-Blue hTLR7/8 cells were plated into 96-well plate (costar 3599) at a density of 40000 cells/well. Then compounds were added with serial dilutions over 10 points with a 1 nM-10 uM final concentration range in 0.1% DMSO/HEK-Blue Detection. The plates were then incubated for 16 hr at 37° C. in 5% CO2. The optical density at 620-655 nm was read on BMG PHERAstar FSX instrument. The EC50 for each compound was determined by calculating the percentages of the maximum activation identified with Resiquimod or Motolimod.

human TLR7 [2] = target: T1, human TLR7; experiment: TLR7 Stimulation Determined Using HEK-Blue Detection; details: HEK-Blue hTLR7 cells, 16 hr, percentages of maximum activation with Resiquimod, Table 1, B233-B247
Excerpt: TLR7 Stimulation Determined Using HEK-Blue Detection
as §1, with “TLR7” for “TLR 8”, “hTLR7” for “hTLR8”
as §2, with “HEK-Blue hTLR7” for “HEK-Blue hTLR7/8”, “a 0.04” for “a 1”, “nM-10 μM” for “nM-10 uM”, “5% CO2 and vortex for 30 s before measurement.” for “5% CO2.”, “with Resiquimod.” for “with Resiquimod or Motolimod.”

SMILES | EC50 (human TLR7 [1]) | EC50 (human TLR 8 protein) | EC50 (human TLR7 [2])
CCCC(CCC)Nc1nc(N)c2ncc(Cc3cnc(N4CCN(C(=O)CN(C)C)CC4)c(C)c3)n2n1 [Compound B195, 1-(4-(5-((4-amino-2-(heptan-4-ylamino)imidazo[2,1-f] [1,2,4]triazin-7-yl)methyl)-3-methylpyridin-2-yl)piperazin-1-yl)-2-(dimethylamino)ethan-1-one] | 2.8 nM | > 10000 nM | 
CCC[C@H](C)Nc1nc(N)c2ncc(Cc3cnc(N4CCN(C(=O)CN(C)C)CC4)c(C)c3)n2n1 [Compound B219, (S)-1-(4-(5-((4-amino-2-(pentan-2-ylamino)imidazo[2,1-f][1,2,4]triazin-7-yl)methyl)-3-methylpyridin-2-yl)piperazin-1-yl)-2-(dimethylamino)ethan-1-one] | 2.4 nM | > 10000 nM | 
CCC[C@H](C)Nc1nc(N)c2ncc(Cc3cnc(N4CCN[C@@H](CC#N)C4)c(C)c3)n2n1 [Compound B233, 2-((S)-4-(5-((4-amino-2-(((S)-pentan-2-yl)amino)imidazo[2,1-f][1,2,4]triazin-7-yl)methyl)-3-methylpyridin-2-yl)piperazin-2-yl)acetonitrile] |  | > 10000 nM | 18.4 nM
CCCC(C)Oc1nc(N)c2ncc(Cc3cnc(N4CCC(CNCC(C)C)CC4)c(C)c3)n2n1 (stereo not shown) [Compound B234, 7-((6-(4-((isobutylamino)methyl)piperidin-1-yl)-5-methylpyridin-3-yl)methyl)-2-(pentan-2-yloxy)imidazo[2,1-f][1,2,4]triazin-4-amine] |  | 451 nM | 5.3 nM
CCCC(CO)Oc1nc(N)c2ncc(Cc3cnc(N4CCC(CNC)CC4)c(C)c3)n2n1 (stereo not shown) [Compound B235, 2-((4-amino-7-((5-methyl-6-(4-((methylamino)methyl)piperidin-1-yl)pyridin-3-yl)methyl)imidazo[2,1-f][1,2,4]triazin-2-yl)oxy)pentan-1-ol] |  | 3630 nM | 63 nM
CCCC(O)COc1nc(N)c2ncc(Cc3cnc(N4CCC(CNC)CC4)c(C)c3)n2n1 (stereo not shown) [Compound B236, 1-((4-amino-7-((5-methyl-6-(4-((methylamino)methyl)piperidin-1-yl)pyridin-3-yl)methyl)imidazo[2,1-f][1,2,4]triazin-2-yl)oxy)pentan-2-ol] |  | > 10000 nM | 648 nM
CCCC(C)Oc1nc(N)c2ncc(Cc3cnc(N4CCC(CNCCOC)CC4)c(C)c3)n2n1 (stereo not shown) [Compound B237, 7-((6-(4-(((2-methoxyethyl)amino)methyl)piperidin-1-yl)-5-methylpyridin-3-yl)methyl)-2-(pentan-2-yloxy)imidazo[2,1-f][1,2,4]triazin-4-amine] |  |  | 8.5 nM
CCC[C@H](C)Nc1nc(N)c2ncc(Cc3cnc(C4CCNCC4)c(C)c3)n2n1 [Compound B240, (S)-7-((5-methyl-6-(piperidin-4-yl)pyridin-3-yl)methyl)-N2-(pentan-2-yl)imidazo[2,1-f][1,2,4]triazine-2,4-diamine] |  | 1510 nM | 1 nM

The remaining compounds from weak to strong by EC50 (human TLR 8 protein), led by results:

EC50 (human TLR7 [1]) | EC50 (human TLR 8 protein) | EC50 (human TLR7 [2]) | SMILES
 | 445 nM | 5.5 nM | CCC[C@H](C)Oc1nc(N)c2ncc(Cc3cnc(N4CCNCC4)c(OC)c3)n2n1 [Compound B241, (S)-7-((5-methoxy-6-(piperazin-1-yl)pyridin-3-yl)methyl)-2-(pentan-2-yloxy)imidazo[2,1-f][1,2,4]triazin-4-amine]
 | 365 nM | 35 nM | CCC[C@H](C)Oc1nc(N)c2ncc(Cc3ccn(C4CCNCC4)c(=O)c3)n2n1 [Compound B243, (S)-4-((4-amino-2-(pentan-2-yloxy)imidazo[2,1-f][1,2,4]triazin-7-yl)methyl)-1-(piperidin-4-yl)pyridin-2(1H)-one]
 | 169 nM | 6.7 nM | CCCC(C)Oc1nc(N)c2ncc(Cc3ccc(C4CCNCC4)nc3F)n2n1 (stereo not shown) [Compound B238, 7-((2-fluoro-6-(piperidin-4-yl)pyridin-3-yl)methyl)-2-(pentan-2-yloxy)imidazo[2,1-f][1,2,4]triazin-4-amine]
 | 122 nM | 3.3 nM | CCC[C@H](C)Oc1nc(N)c2ncc(Cc3ccc(C4CCNCC4)nc3F)n2n1 [Compound B239, (S)-7-((2-fluoro-6-(piperidin-4-yl)pyridin-3-yl)methyl)-2-(pentan-2-yloxy)imidazo[2,1-f][1,2,4]triazin-4-amine]
 | 74 nM | 9.8 nM | CCCC(CCO)Oc1nc(N)c2ncc(Cc3ccc(C4CCNCC4)nc3F)n2n1 (stereo not shown) [Compound B242, 3-((4-amino-7-((2-fluoro-6-(piperidin-4-yl)pyridin-3 yl)methyl)imidazo[2,1-f][1,2,4]triazin-2-yl)oxy)hexan-1-ol]
